# Assay results as given in patent US20250179057A1, “MEK IMMUNE ONCOLOGY INHIBITORS AND THERAPEUTIC USES THEREOF” (Immuneering Corporation, priority 2022, published 2025).
# Counter-ions that a name gives are not always drawn.
# Experiments:
# [1] = system: phospho-MEK in A549 cells; test: Cell-based pMEK (pMEK:tMEK, CRAF bypass) in A549 cells; conditions: for A549-CRAF BP 100 nM, 2 h: pMEK to total MEK normalized to DMSO control
# Method in brief: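 Cells (A549 or A375) exposed 2 h to compounds at varying concentrations in duplicate, then lysed; lysates set to 1.5 mg/mL for pMEK by quantitative Western (Jess). Phospho-MEK/total MEK ratio normalized to DMSO control.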
# [2] = Mouse liver microsome stability (t1/2, Clint); conditions: for half-life at 1 μM / microsomal CLint at 1 μM: mouse, liver microsomes, pH 7.4
# CYP2C8 = molecular target: T1, CYP2C8 (Homo sapiens, UniProt P10632); test: in vitro; conditions: microsomes, pH 7.4
# T1 sequence (P10632 1-490): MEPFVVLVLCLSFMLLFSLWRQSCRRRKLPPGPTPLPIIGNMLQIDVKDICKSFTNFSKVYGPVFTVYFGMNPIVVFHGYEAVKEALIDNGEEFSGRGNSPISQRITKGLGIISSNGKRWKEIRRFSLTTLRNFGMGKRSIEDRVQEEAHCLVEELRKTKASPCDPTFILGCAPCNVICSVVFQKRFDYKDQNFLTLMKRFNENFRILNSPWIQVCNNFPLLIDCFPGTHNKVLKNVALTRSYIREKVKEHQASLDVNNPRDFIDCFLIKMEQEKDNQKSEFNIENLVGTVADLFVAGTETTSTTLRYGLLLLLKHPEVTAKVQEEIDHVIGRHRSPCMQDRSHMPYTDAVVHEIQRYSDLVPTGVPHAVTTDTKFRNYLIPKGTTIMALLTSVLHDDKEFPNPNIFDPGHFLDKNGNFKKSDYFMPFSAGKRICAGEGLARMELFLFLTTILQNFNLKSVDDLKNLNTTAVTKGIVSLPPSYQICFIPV
# [3] = system: phospho-ERK in Hs852.T cells; test: pERK/tERK ratio in Hs852.T melanoma model; assay type: cell-based; conditions: Hs852.T (NRAS p.G12V); 100 nM
# Description: (§1) Compound (drug) treatment: Cells were plated in a 6-well plate at a density of 250,000-300,000 cells/well in 3 mL media and incubated 37° C. in a humidified, 5% CO2 incubator. […] These solutions were added to the cells (3 uL/well), mixed by swirling the plate, and incubated at 37° C. in a humidified, 5% CO2 incubator for 2 hours.
# (§2) Cell lysis and protein estimation: Cells were washed with PBS, and scraped in 50 μL of lysis buffer containing protease and phosphatase inhibitors. Cell lysates were stored at −20° C. Cell lysates were thawed and spun at 12,000 rpm for one minute, 3 ul of the supernatant was added to 500 μL of Coomassie blue reagent following by 500 μL of water. […] Protein standards were used (0-20 mg/mL) to calculate protein concentrations of test samples.
# (§3) All samples were heated at 95° C. for 5 minutes, cooled to room temperature and spun down. […] After the run, gel was removed and protein transfer was done using iBlot for 7 minutes, as per manufacturer's recommendations. After the transfer, nitrocellulose membrane was incubated on a shaker in 5 mL of blocking buffer at room temperature for 1 hr. The blot was then incubated overnight on a shaker in 5 ml of blocking buffer containing 0.2% Tween-20 and primary antibody, at room temperature. Anti-phospho-STAT3 antibody was used at a dilution of 1:500, the other 3 primary antibodies were used at a dilution of 1:1000.
# (§4) Next day, the blot was washed 3 times for 10 min each with 10 mL of TBST followed by incubation on a shaker in 5 ml of blocking buffer containing 0.2% Tween-20 and 0.5 ul of the IRDye labeled secondary antibodies, diluted 1:10000, at room temperature for 1 hr. The blot was then washed 3 times for 10 min each with 10 mL of TBST and dried between sheets of paper towels. Imaging was done using LICOR's Odyssey imaging system, quantitation was done using their software, Image Studio version 3.1.
# (§5) The nine models are described in Table 16.
# [4] = system: phospho-ERK in MEL-JUSO cells; test: pERK/tERK ratio in MEL-JUSO melanoma model; assay type: cell-based; conditions: MEL-JUSO (HRAS p.G13D, NRAS p.Q61L); 100 nM
# Description: as §1, §2, §3, §4, §5
# [5] = system: phospho-ERK in MeWo cells; test: pERK/tERK ratio in MeWo melanoma model; assay type: cell-based; conditions: MeWo (NF1 LoF); 100 nM
# Description: as §1, §2, §3, §4, §5
# [6] = system: phospho-ERK in SK-MEL-2 cells; test: pERK/tERK ratio in SK-MEL-2 melanoma model; assay type: cell-based; conditions: SK-MEL-2 (NRAS p.Q61R); 100 nM
# Description: as §1, §2, §3, §4, §5
# [7] = 1 μM, 0.5 mg/ml microsomal protein
compound,measurement,setting,value
CNS(=O)(=O)Nc1cccc(Cc2c(CN(C)C)c3ccc(OC(=O)N(C)C)cc3oc2=O)c1F [Compound 9],"A549-CRAF BP 100 nM, 2 h",[1],"44.9 (mean, n = 8)"
same,CRAF A549 pMEK:tMEK [100 nM; 2 hr],[1],0.47
same,Mouse Clint,[2]; [7],32 µL/min/mg
same,Mouse Microsome (t1/2 min),[2]; [7],44 min
CNS(=O)(=O)Nc1cccc(Cc2c(CN(C)C)c3cc(F)c(OC(=O)N(C)C)cc3oc2=O)c1F [Compound 25],"A549-CRAF BP 100 nM, 2 h",[1],71
CNS(=O)(=O)Nc1cccc(Cc2c(CN3CCNCC3)c3cc(F)c(OC(=O)N(C)C)cc3oc2=O)c1F [Compound 134],"A549-CRAF BP 100 nM, 2 h",[1],26.9
"CCN(C)Cc1c(Cc2cccc(NS(=O)(=O)NC)c2Cl)c(=O)oc2cc(OC(=O)N(C)C)ccc12 [Compound 245, 3-(2-chloro-3-((N-methylsulfamoyl)amino)benzyl)-4-((ethyl(methyl)amino)methyl)-2-oxo-2H-chromen-7-yl dimethylcarbamate]","inhibition at 30 min, 10 µM",CYP2C8,30.4%
"CNS(=O)(=O)Nc1cccc(Cc2c(CN3CCNCC3)c3ccc(OC(=O)N(C)C)cc3oc2=O)c1Cl [Compound 246, 3-(2-chloro-3-((N-methylsulfamoyl)amino)benzyl)-2-oxo-4-(piperazin-1-ylmethyl)-2H-chromen-7-yl dimethylcarbamate hydrochloride]","inhibition at 30 min, 10 µM",CYP2C8,10.5%
"CNS(=O)(=O)Nc1cccc(Cc2c(CN3CCNCC3)c3cc(Cl)c(OC(=O)N(C)C)cc3oc2=O)c1Cl [Compound 256, 6-chloro-3-(2-chloro-3-((N-methylsulfamoyl)amino)benzyl)-2-oxo-4-(piperazin-1-ylmethyl)-2H-chromen-7-yl dimethylcarbamate hydrochloride]","inhibition at 30 min, 10 µM",CYP2C8,97%
"CCS(=O)(=O)Nc1cccc(Cc2c(CN3CCNCC3)c3cc(Cl)c(OC(=O)N(C)C)cc3oc2=O)c1Cl [Compound 257, 6-chloro-3-(2-chloro-3-(ethylsulfonamido)benzyl)-2-oxo-4-(piperazin-1-ylmethyl)-2H-chromen-7-yl dimethylcarbamate hydrochloride]","inhibition at 30 min, 10 µM",CYP2C8,97.5%
"CNS(=O)(=O)Nc1cccc(Cc2c(CN(C)C)c3ccc(OC(=O)N(C)C)cc3oc2=O)c1Cl [Compound 274, 3-(2-chloro-3-((N-methylsulfamoyl)amino)benzyl)-4-((dimethylamino)methyl)-2-oxo-2H-chromen-7-yl dimethylcarbamate]","inhibition at 30 min, 10 µM",CYP2C8,11.9%
same,pERK/tERK ratio normalized to DMSO,[3],0.731
same,pERK/tERK ratio normalized to DMSO,[4],0.631
same,pERK/tERK ratio normalized to DMSO,[5],0.519
same,pERK/tERK ratio normalized to DMSO,[6],0.439
"Cn1cnc2c(F)c(Nc3ccc(Br)cc3Cl)c(C(=O)NOCCO)cc21 [Reference-1, Selumetinib]",CRAF A549 pMEK:tMEK [100 nM; 2 hr],[1],2.09
same,half-life at 1 μM,[2],18 min
same,microsomal CLint at 1 μM,[2],78 µL/min/mg
same,pERK/tERK ratio normalized to DMSO,[3],0.293
same,pERK/tERK ratio normalized to DMSO,[4],0.179
same,pERK/tERK ratio normalized to DMSO,[5],0.196
same,pERK/tERK ratio normalized to DMSO,[6],0.191
"CNS(=O)(=O)Nc1nccc(Cc2c(C)c3ccc(Oc4ncccn4)cc3oc2=O)c1F [Reference-2, reference compound]",CRAF A549 pMEK:tMEK [100 nM; 2 hr],[1],2.09
same,half-life at 1 μM,[2],18 min
same,microsomal CLint at 1 μM,[2],78 µL/min/mg
